Reference: US10730863B2, “Bridged bicyclic compounds as farnesoid X receptor modulators” (BRISTOL-MYERS SQUIBB COMPANY, priority 2017, dated 2020)
pEC50: −log10 of the molar value.

Target: FXR (Homo sapiens (Human), UniProt Q96RI1)
Test: FXR EC50 (FXR agonist activity reported with each example)
Assay type: cell-based

Chain of FXR (Q96RI1 262-486): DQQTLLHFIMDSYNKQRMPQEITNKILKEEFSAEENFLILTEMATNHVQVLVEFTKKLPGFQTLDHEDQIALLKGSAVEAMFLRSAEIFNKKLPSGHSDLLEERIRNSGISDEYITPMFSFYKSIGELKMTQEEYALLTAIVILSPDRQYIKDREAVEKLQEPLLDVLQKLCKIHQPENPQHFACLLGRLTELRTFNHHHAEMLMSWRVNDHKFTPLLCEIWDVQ

Compound | pEC50
O=C(O)c1cccc(-c2noc(C34CCC(OCc5c(-c6c(Cl)cncc6Cl)noc5C5CC5)(CC3)CC4)n2)n1 [Example 247, 6-(5-(4-((5-cyclopropyl-3-(3,5-dichloropyridin-4-yl)isoxazol-4-yl)methoxy)bicyclo[2.2.2]octan-1-yl)-1,2,4-oxadiazol-3-yl)picolinic acid] | 6.24
O=C(O)c1c(F)ccc(-c2noc(C34CCC(OCc5c(-c6c(Cl)cncc6Cl)noc5C5CC5)(CC3)CC4)n2)c1F [Example 248, 3-(5-(4-((5-cyclopropyl-3-(3,5-dichloropyridin-4-yl)isoxazol-4-yl)methoxy)bicyclo[2.2.2]octan-1-yl)-1,2,4-oxadiazol-3-yl)-2,6-difluorobenzoic acid] | 5.96
O=C(O)c1cc(-c2noc(C34CCC(OCc5c(-c6c(Cl)cncc6Cl)noc5C5CC5)(CC3)CC4)n2)ccn1 [Example 249, 4-(5-(4-((5-cyclopropyl-3-(3,5-dichloropyridin-4-yl)isoxazol-4-yl)methoxy)bicyclo[2.2.2]octan-1-yl)-1,2,4-oxadiazol-3-yl)picolinic acid] | 6.62
COc1ccc(-c2noc(C34CCC(OCc5c(-c6c(Cl)cncc6Cl)noc5C5CC5)(CC3)CC4)n2)c(F)c1C(=O)O [Example 250, 3-(5-(4-((5-cyclopropyl-3-(3,5-dichloropyridin-4-yl)isoxazol-4-yl)methoxy)bicyclo[2.2.2]octan-1-yl)-1,2,4-oxadiazol-3-yl)-2-fluoro-6-methoxybenzoic acid] | 6.14
CC(C)Oc1cc(C(=O)O)cc(-c2noc(C34CCC(OCc5c(-c6c(Cl)cncc6Cl)noc5C5CC5)(CC3)CC4)n2)c1 [Example 251, 3-(5-(4-((5-cyclopropyl-3-(3,5-dichloropyridin-4-yl)isoxazol-4-yl)methoxy)bicyclo[2.2.2]octan-1-yl)-1,2,4-oxadiazol-3-yl)-5-isopropoxybenzoic acid] | 7.80
COc1ccc(-c2nc(C34CCC(OCc5c(-c6c(Cl)cncc6Cl)noc5C5CC5)(CC3)CC4)co2)cc1C(=O)O [Example 252, 5-(4-(4-((5-cyclopropyl-3-(3,5-dichloropyridin-4-yl)isoxazol-4-yl)methoxy)bicyclo[2.2.2]octan-1-yl)oxazol-2-yl)-2-methoxybenzoic acid] | 7.07
COc1ccc(-c2noc(C34CCC(OCc5c(-c6c(Cl)cncc6Cl)noc5C5CC5)(CC3)CC4)n2)nc1C(=O)O [Example 253, 6-(5-(4-((5-cyclopropyl-3-(3,5-dichloropyridin-4-yl)isoxazol-4-yl)methoxy)bicyclo[2.2.2]octan-1-yl)-1,2,4-oxadiazol-3-yl)-3-methoxypicolinic acid] | 6.13
O=C(O)c1cc(-c2noc(C34CCC(OCc5c(-c6c(Cl)cncc6Cl)noc5C5CC5)(CC3)CC4)n2)ccc1C(F)(F)F [Example 254, 5-(5-(4-((5-cyclopropyl-3-(3,5-dichloropyridin-4-yl)isoxazol-4-yl)methoxy)bicyclo[2.2.2]octan-1-yl)-1,2,4-oxadiazol-3-yl)-2-(trifluoromethyl)benzoic acid] | 5.70
COc1ccc(-c2nc(C34CCC(OCc5c(-c6c(Cl)cncc6Cl)noc5C5CC5)(CC3)CC4)cs2)cc1C(=O)O [Example 255, 5-(4-(4-((5-cyclopropyl-3-(3,5-dichloropyridin-4-yl)isoxazol-4-yl)methoxy)bicyclo[2.2.2]octan-1-yl)thiazol-2-yl)-2-methoxybenzoic acid] | 7.74
CC(C)Oc1ccc(-c2noc(C34CCC(OCc5c(-c6c(Cl)cncc6Cl)noc5C5CC5)(CC3)CC4)n2)cc1C(=O)O [Example 256, 5-(5-(4-((5-cyclopropyl-3-(3,5-dichloropyridin-4-yl)isoxazol-4-yl)methoxy)bicyclo[2.2.2]octan-1-yl)-1,2,4-oxadiazol-3-yl)-2-isopropoxybenzoic acid] | 6.59
COc1cc(-c2noc(C34CCC(OCc5c(-c6c(Cl)cncc6Cl)noc5C5CC5)(CC3)CC4)n2)cc(C(=O)O)n1 [Example 257, 4-(5-(4-((5-cyclopropyl-3-(3,5-dichloropyridin-4-yl)isoxazol-4-yl)methoxy)bicyclo[2.2.2]octan-1-yl)-1,2,4-oxadiazol-3-yl)-6-methoxypicolinic acid] | 7.10
CC(C)Oc1cc(-c2noc(C34CCC(OCc5c(-c6c(Cl)cncc6Cl)noc5C5CC5)(CC3)CC4)n2)cc(C(=O)O)n1 [Example 258, 4-(5-(4-((5-cyclopropyl-3-(3,5-dichloropyridin-4-yl)isoxazol-4-yl)methoxy)bicyclo[2.2.2]octan-1-yl)-1,2,4-oxadiazol-3-yl)-6-isopropoxypicolinic acid] | 8.10
COc1ccc(-c2nc(C34CCC(OCc5c(-c6c(Cl)cncc6Cl)noc5C5CC5)(CC3)CC4)c[nH]2)cc1C(=O)O [Example 259, 5-(4-(4-((5-cyclopropyl-3-(3,5-dichloropyridin-4-yl)isoxazol-4-yl)methoxy)bicyclo[2.2.2]octan-1-yl)-1H-imidazol-2-yl)-2-methoxybenzoic acid] | 5.26
O=C(O)c1cc(-c2noc(C34CCC(OCc5c(-c6c(Cl)cncc6Cl)noc5C5CC5)(CC3)CC4)n2)cc(OC2CC2)n1 [Example 260, 6-cyclopropoxy-4-(5-(4-((5-cyclopropyl-3-(3,5-dichloropyridin-4-yl)isoxazol-4-yl)methoxy)bicyclo[2.2.2]octan-1-yl)-1,2,4-oxadiazol-3-yl)picolinic acid] | 7.41
O=C(O)c1cc(-c2noc(C34CCC(OCc5c(-c6c(Cl)cncc6Cl)noc5C5CC5)(CC3)CC4)n2)cc(OC2CCC2)n1 [Example 261, 6-cyclobutoxy-4-(5-(4-((5-cyclopropyl-3-(3,5-dichloropyridin-4-yl)isoxazol-4-yl)methoxy)bicyclo[2.2.2]octan-1-yl)-1,2,4-oxadiazol-3-yl)picolinic acid] | 7.44
CN(C)c1cc(-c2noc(C34CCC(OCc5c(-c6c(Cl)cncc6Cl)noc5C5CC5)(CC3)CC4)n2)cc(C(=O)O)n1 [Example 262, 4-(5-(4-((5-cyclopropyl-3-(3,5-dichloropyridin-4-yl)isoxazol-4-yl)methoxy)bicyclo[2.2.2]octan-1-yl)-1,2,4-oxadiazol-3-yl)-6-(dimethylamino)picolinic acid] | 7.28
O=C(O)c1cc(-c2noc(C34CCC(OCc5c(-c6c(Cl)cncc6Cl)noc5C5CC5)(CC3)CC4)n2)cc(OCC(F)(F)F)n1 [Example 263, 4-(5-(4-((5-cyclopropyl-3-(3,5-dichloropyridin-4-yl)isoxazol-4-yl)methoxy)bicyclo[2.2.2]octan-1-yl)-1,2,4-oxadiazol-3-yl)-6-(2,2,2-trifluoroethoxy)picolinic acid] | 7.02
O=C(O)c1cc(-c2noc(C34CCC(OCc5c(-c6c(Cl)cncc6Cl)noc5C5CC5)(CC3)CC4)n2)cc(C(F)(F)F)n1 [Example 264, 4-(5-(4-((5-cyclopropyl-3-(3,5-dichloropyridin-4-yl)isoxazol-4-yl)methoxy)bicyclo[2.2.2]octan-1-yl)-1,2,4-oxadiazol-3-yl)-6-(trifluoromethyl)picolinic acid] | 6.74
COc1cc(-c2noc(C34CCC(OCc5c(-c6c(Cl)cncc6Cl)noc5C5CC5)(CC3)CC4)n2)cnc1C(=O)O [Example 265, 5-(5-(4-((5-cyclopropyl-3-(3,5-dichloropyridin-4-yl)isoxazol-4-yl)methoxy)bicyclo[2.2.2]octan-1-yl)-1,2,4-oxadiazol-3-yl)-3-methoxypicolinic acid] | 5.82
O=C(O)C1CC1c1noc(C23CCC(OCc4c(-c5c(Cl)cccc5Cl)noc4C4CC4)(CC2)CC3)n1 (stereo not drawn) [Example 266, 2-(5-(4-((5-cyclopropyl-3-(2,6-dichlorophenyl)isoxazol-4-yl)methoxy)bicyclo[2.2.2]octan-1-yl)-1,2,4-oxadiazol-3-yl)cyclopropane-1-carboxylic acid] | 6.14
Clc1cccc(Cl)c1-c1noc(C2CC2)c1COC12CCC(c3nc(-c4nn[nH]n4)no3)(CC1)CC2 [Example 267, 5-(4-((5-cyclopropyl-3-(2,6-dichlorophenyl)isoxazol-4-yl)methoxy)bicyclo[2.2.2]octan-1-yl)-3-(2H-tetrazol-5-yl)-1,2,4-oxadiazole] | 5.36
O=C(O)c1cn(CC23CCC(OCc4c(-c5c(Cl)cccc5Cl)noc4C4CC4)(CC2)CC3)nc1C(F)F [Example 268, 1-((4-((5-cyclopropyl-3-(2,6-dichlorophenyl)isoxazol-4-yl)methoxy)bicyclo[2.2.2]octan-1-yl)methyl)-3-(difluoromethyl)-1H-pyrazole-4-carboxylic acid] | 6.34
O=C(O)c1cnn(CC23CCC(OCc4c(-c5c(Cl)cccc5Cl)noc4C4CC4)(CC2)CC3)c1C(F)F [Example 269, 1-((4-((5-cyclopropyl-3-(2,6-dichlorophenyl)isoxazol-4-yl)methoxy)bicyclo[2.2.2]octan-1-yl)methyl)-5-(difluoromethyl)-1H-pyrazole-4-carboxylic acid] | 6.15
O=C(O)C1CC1c1noc(C23CCC(OCc4c(-c5c(Cl)cncc5Cl)noc4C4CC4)(CC2)CC3)n1 (stereo not drawn) [Example 270, 2-(5-(4-((5-cyclopropyl-3-(3,5-dichloropyridin-4-yl)isoxazol-4-yl)methoxy)bicyclo[2.2.2]octan-1-yl)-1,2,4-oxadiazol-3-yl)cyclopropane-1-carboxylic acid] | 5.82
O=C(O)C1(c2noc(C34CCC(OCc5c(-c6c(Cl)cncc6Cl)noc5C5CC5)(CC3)CC4)n2)CC1 [Example 271, 1-(5-(4-((5-cyclopropyl-3-(3,5-dichloropyridin-4-yl)isoxazol-4-yl)methoxy)bicyclo[2.2.2]octan-1-yl)-1,2,4-oxadiazol-3-yl)cyclopropane-1-carboxylic acid] | 5.96
O=C(O)C1CC1c1noc(CC23CCC(OCc4c(-c5c(Cl)cncc5Cl)noc4C4CC4)(CC2)CC3)n1 (stereo not drawn) [Example 272, 2-(5-((4-((5-cyclopropyl-3-(3,5-dichloropyridin-4-yl)isoxazol-4-yl)methoxy)bicyclo[2.2.2]octan-1-yl)methyl)-1,2,4-oxadiazol-3-yl)cyclopropane-1-carboxylic acid] | 6.40
COc1ccc(-c2noc(C34CCC(OCc5c(-c6c(Cl)cnn6C)noc5C5CC5)(CC3)CC4)n2)cc1C(=O)O [Example 273, 5-(5-(4-((3-(4-chloro-1-methyl-1H-pyrazol-5-yl)-5-cyclopropylisoxazol-4-yl)methoxy)bicyclo[2.2.2]octan-1-yl)-1,2,4-oxadiazol-3-yl)-2-methoxybenzoic acid] | 5.48
